Tests used:
Type in all cases: cell-based
[1] = molecular target: T1, human TLR7 (Homo sapiens, UniProt Q9NYK1); test: TLR7 inhibition reporter assay (HEK-Blue cells, SEAP reporter, gardiquimod stimulation); conditions: HEK-Blue cells overexpressing human TLR7, SEAP reporter, gardiquimod 7.5 μM; read-out: TLR7 IC50
T1 construct: host or cells: HEK-Blue cells
T1 sequence (Q9NYK1 27-1049): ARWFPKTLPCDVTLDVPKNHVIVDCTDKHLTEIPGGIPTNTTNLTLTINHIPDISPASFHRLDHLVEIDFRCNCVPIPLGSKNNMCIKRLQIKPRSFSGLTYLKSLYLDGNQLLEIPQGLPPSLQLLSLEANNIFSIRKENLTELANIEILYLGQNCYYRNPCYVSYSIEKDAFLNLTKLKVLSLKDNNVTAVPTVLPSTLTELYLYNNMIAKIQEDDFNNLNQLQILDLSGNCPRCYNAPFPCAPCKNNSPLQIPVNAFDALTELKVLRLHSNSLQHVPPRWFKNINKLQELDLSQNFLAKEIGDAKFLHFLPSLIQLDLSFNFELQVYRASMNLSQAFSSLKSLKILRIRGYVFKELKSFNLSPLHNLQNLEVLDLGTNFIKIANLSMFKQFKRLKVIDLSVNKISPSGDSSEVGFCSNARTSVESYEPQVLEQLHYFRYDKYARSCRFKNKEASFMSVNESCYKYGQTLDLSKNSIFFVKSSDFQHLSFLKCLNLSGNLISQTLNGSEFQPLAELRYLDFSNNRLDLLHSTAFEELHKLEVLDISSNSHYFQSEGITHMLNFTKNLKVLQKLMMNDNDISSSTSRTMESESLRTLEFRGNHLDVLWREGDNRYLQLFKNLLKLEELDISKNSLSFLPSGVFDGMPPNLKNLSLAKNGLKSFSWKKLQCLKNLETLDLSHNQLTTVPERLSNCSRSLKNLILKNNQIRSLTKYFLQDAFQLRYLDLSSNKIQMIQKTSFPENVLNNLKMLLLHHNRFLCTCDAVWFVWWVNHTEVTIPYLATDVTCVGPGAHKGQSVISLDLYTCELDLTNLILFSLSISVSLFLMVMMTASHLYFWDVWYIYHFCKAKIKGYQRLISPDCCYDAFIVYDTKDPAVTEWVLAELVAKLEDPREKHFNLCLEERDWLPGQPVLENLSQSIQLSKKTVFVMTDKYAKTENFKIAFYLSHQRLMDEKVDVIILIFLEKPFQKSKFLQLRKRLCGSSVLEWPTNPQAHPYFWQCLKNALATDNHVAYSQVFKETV
Outline: (§1)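 Compound treatment: 30 min, RT, 0.05 nM–50 μM final. Agonist: TLR7 gardiquimod 7.5 μM; TLR8 R848 15.9 μM; TLR9 ODN2006 5 nM. Incubation 22 h, 37 °C, 5% CO2. Readout SEAP, HEK-Blue Detection.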

[2] = molecular target: T2, human TLR8 (Homo sapiens, UniProt Q9NR97); test: TLR8 inhibition reporter assay (HEK-Blue cells, SEAP reporter, R848 stimulation); conditions: HEK-Blue cells overexpressing human TLR8, SEAP reporter, R848 15.9 μM; read-out: TLR8 IC50
T2 construct: host or cells: HEK-Blue cells
T2 sequence (Q9NR97 27-1041): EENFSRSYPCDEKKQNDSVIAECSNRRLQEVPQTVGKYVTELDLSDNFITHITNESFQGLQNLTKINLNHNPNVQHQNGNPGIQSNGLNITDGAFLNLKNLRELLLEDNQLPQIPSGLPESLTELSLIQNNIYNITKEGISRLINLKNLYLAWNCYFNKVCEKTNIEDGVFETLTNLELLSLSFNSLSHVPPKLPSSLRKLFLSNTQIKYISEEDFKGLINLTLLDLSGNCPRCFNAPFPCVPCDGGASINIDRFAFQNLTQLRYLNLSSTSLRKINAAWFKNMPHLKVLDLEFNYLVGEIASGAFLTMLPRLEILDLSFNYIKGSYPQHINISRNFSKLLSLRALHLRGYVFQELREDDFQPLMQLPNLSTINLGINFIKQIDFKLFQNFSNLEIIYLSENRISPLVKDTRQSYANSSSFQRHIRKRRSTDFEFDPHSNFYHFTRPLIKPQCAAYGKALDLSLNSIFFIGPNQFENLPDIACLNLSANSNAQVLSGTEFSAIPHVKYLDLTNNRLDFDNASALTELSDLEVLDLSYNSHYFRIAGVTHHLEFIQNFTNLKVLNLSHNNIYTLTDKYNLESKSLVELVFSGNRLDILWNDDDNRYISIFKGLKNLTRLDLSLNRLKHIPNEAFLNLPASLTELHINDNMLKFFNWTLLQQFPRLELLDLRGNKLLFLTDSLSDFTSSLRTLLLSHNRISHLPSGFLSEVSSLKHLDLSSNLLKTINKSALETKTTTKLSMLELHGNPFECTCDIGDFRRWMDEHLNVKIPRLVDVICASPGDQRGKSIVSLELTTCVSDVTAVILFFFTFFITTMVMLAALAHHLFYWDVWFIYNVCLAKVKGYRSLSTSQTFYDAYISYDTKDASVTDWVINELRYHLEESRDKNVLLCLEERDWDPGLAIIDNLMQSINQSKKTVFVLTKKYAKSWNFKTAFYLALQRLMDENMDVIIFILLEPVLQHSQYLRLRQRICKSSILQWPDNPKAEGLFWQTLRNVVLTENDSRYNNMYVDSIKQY
Outline: as §1

[3] = molecular target: T3, human TLR9 (Homo sapiens, UniProt Q9NR96); test: TLR9 inhibition reporter assay (HEK-Blue cells, SEAP reporter, ODN2006 stimulation); conditions: HEK-Blue cells overexpressing human TLR9, SEAP reporter, ODN2006 5 nM
T3 construct: host or cells: HEK-Blue cells
T3 sequence (Q9NR96 26-1032): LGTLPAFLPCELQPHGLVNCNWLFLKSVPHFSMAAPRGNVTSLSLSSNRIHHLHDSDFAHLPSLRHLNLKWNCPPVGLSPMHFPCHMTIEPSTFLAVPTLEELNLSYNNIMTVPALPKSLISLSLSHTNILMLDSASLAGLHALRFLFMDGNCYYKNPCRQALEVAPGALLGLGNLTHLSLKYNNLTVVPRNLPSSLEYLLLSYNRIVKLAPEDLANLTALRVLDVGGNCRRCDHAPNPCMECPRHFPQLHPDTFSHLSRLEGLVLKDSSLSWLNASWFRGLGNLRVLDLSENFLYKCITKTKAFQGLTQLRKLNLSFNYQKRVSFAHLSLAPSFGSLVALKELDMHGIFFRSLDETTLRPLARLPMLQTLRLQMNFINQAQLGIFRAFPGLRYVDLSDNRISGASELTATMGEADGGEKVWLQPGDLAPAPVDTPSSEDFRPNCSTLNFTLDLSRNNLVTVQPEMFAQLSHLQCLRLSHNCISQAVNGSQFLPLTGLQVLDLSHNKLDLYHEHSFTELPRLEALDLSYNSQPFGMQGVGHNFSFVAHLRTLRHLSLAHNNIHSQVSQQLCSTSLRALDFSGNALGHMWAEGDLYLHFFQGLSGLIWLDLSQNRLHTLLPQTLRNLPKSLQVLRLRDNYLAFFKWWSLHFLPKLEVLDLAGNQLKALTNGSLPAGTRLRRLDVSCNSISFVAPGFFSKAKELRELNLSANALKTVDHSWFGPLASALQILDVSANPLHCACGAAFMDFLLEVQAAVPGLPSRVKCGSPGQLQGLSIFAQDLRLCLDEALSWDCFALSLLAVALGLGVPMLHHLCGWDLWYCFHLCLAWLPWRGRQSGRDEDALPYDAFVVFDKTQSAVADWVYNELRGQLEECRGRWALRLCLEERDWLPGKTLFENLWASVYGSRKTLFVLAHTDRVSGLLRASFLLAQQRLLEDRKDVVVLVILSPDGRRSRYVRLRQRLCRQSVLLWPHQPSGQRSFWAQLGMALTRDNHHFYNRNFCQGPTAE
Procedure: TLR7/8/9 Inhibition Reporter Assays
HEK-Blue™-cells (Invivogen) overexpressing human TLR7, TLR8 or TLR9 receptors were used for screening inhibitors of these receptors using an inducible SEAP (secreted embryonic alkaline phosphatase) reporter gene under the control of the IFN-β minimal promoter fused to five NF-κB and AP-1-binding sites. Briefly, cells are seeded into Greiner 384 well plates (15000 cells per well for TLR7, 20,000 for TLR8 and 25,000 for TLR9) and then treated with test compounds in DMSO to yield a final dose response concentration range of 0.05 nM-50 μM. After a 30 minute compound pre-treatment at room temperature, the cells are then stimulated with a TLR7 ligand (gardiquimod at a final concentration of 7.5 μM), TLR8 ligand (R848 at a final concentration of 15.9 μM) or TLR9 ligand (ODN2006 at a final concentration of 5 nM) to activate NF-κB and AP-1 which induce the production of SEAP. After a 22 hour incubation at 37° C., 5% CO2, SEAP levels are determined with the addition of HEK-Blue™ Detection reagent (Invivogen), a cell culture medium that allows for detection of SEAP, according to manufacturer's specifications. The percent inhibition is determined as the % reduction in the HEK-Blue signal present in wells treated with agonist plus DMSO alone compared to wells treated with a known inhibitor.

SMILES	IC50 [1] [nM]	IC50 [2] [nM]	IC50 [3] [nM]
COc1cc(-c2[nH]c3sc(C4CCC(NC5(C)COC5)CC4)nc3c2C(C)C)cn2ncnc12 (single isomer, unassigned) [Example 70, N-(4-(6-isopropyl-5-(8-methoxy-[1,2,4]triazolo[1,5-a]pyridin-6-yl)-4H-pyrrolo[3,2-d]thiazol-2-yl)cyclohexyl)-3-methyloxetan-3-amine]	0.58	1.46	6610
COc1cc(-c2[nH]c3sc(C4CCC(NC5(C)COC5)CC4)nc3c2C(C)C)cn2ncnc12 (single isomer, unassigned) [Example 71, N-(4-(6-isopropyl-5-(8-methoxy-[1,2,4]triazolo[1,5-a]pyridin-6-yl)-4H-pyrrolo[3,2-d]thiazol-2-yl)cyclohexyl)-3-methyloxetan-3-amine]	6.92	19	5810
COc1cc(-c2[nH]c3sc(C4CCC(N5CCC5)CC4)nc3c2C(C)C)cn2ncnc12 (single isomer, unassigned) [Example 76, 2-(4-(azetidin-1-yl)cyclohexyl)-6-isopropyl-5-(8-methoxy-[1,2,4]triazolo[1,5-a]pyridin-6-yl)-4H-pyrrolo[3,2-d]thiazole]	0.9	2.62	1450
COc1cc(-c2[nH]c3sc(C4CCC(N5CCC5)CC4)nc3c2C(C)C)cn2ncnc12 (single isomer, unassigned) [Example 77, 2-(4-(azetidin-1-yl)cyclohexyl)-6-isopropyl-5-(8-methoxy-[1,2,4]triazolo[1,5-a]pyridin-6-yl)-4H-pyrrolo[3,2-d]thiazole]	2.03	21.5	3270
COc1cc(-c2[nH]c3sc(C4CCC(NC(C)C)CC4)nc3c2C(C)C)cn2ncnc12 (single isomer, unassigned) [Example 78, N-isopropyl-4-(6-isopropyl-5-(8-methoxy-[1,2,4]triazolo[1,5-a]pyridin-6-yl)-4H-pyrrolo[3,2-d]thiazol-2-yl)cyclohexan-1-amine]	0.59	1.64	2870
COc1cc(-c2[nH]c3sc(C4CCC(NC(C)C)CC4)nc3c2C(C)C)cn2ncnc12 (single isomer, unassigned) [Example 79, N-isopropyl-4-(6-isopropyl-5-(8-methoxy-[1,2,4]triazolo[1,5-a]pyridin-6-yl)-4H-pyrrolo[3,2-d]thiazol-2-yl)cyclohexan-1-amine]	2.29	9.23	4120

Second part, the compound after the results:

IC50 [1] [nM]	IC50 [2] [nM]	IC50 [3] [nM]	SMILES
1.23	4.75	7220	CCN(C)C1CCC(c2nc3c(C(C)C)c(-c4cc(OC)c5ncnn5c4)[nH]c3s2)CC1 (single isomer, unassigned) [Example 72, N-ethyl-4-(6-isopropyl-5-(8-methoxy-[1,2,4]triazolo[1,5-a]pyridin-6-yl)-4H-pyrrolo[3,2-d]thiazol-2-yl)-N-methylcyclohexan-1-amine]
0.96	12.7	4280	CCN(C)C1CCC(c2nc3c(C(C)C)c(-c4cc(OC)c5ncnn5c4)[nH]c3s2)CC1 (single isomer, unassigned) [Example 73, N-ethyl-4-(6-isopropyl-5-(8-methoxy-[1,2,4]triazolo[1,5-a]pyridin-6-yl)-4H-pyrrolo[3,2-d]thiazol-2-yl)-N-methylcyclohexan-1-amine]
0.71	3.44	1910	CNC1CCC(c2nc3c(C(C)C)c(-c4cc(OC)c5ncnn5c4)[nH]c3s2)CC1 (single isomer, unassigned) [Example 74, 4-(6-isopropyl-5-(8-methoxy-[1,2,4]triazolo[1,5-a]pyridin-6-yl)-4H-pyrrolo[3,2-d]thiazol-2-yl)-N-methylcyclohexan-1-amine]
0.89	7.55	3390	CNC1CCC(c2nc3c(C(C)C)c(-c4cc(OC)c5ncnn5c4)[nH]c3s2)CC1 (single isomer, unassigned) [Example 75, 4-(6-isopropyl-5-(8-methoxy-[1,2,4]triazolo[1,5-a]pyridin-6-yl)-4H-pyrrolo[3,2-d]thiazol-2-yl)-N-methylcyclohexan-1-amine]
